# In PMC6458995, “MAP4K4 Inhibition Promotes Survival of Human Stem Cell-Derived Cardiomyocytes and Reduces Infarct Size In Vivo” (Cell Stem Cell, 2019):
# Columns and labels:
# Test in all cases: Dundee kinase panel
# Format in all cases: biochemical
# IRAK1 = biological target: T1, IRAK1 (Homo sapiens, UniProt P51617)
# T1 construct: lines 1-140) and Reaction Biology
# Protocol: (§1) Compounds were screened at 1 μM. For key hits, pIC50 values were then determined by HTRF as above. […] Stability in mouse and human liver microsomes was determined by Cyprotex.
# DAPK1 = biological target: T2, DAPK1 (Homo sapiens, UniProt P53355)
# T2 construct: lines 1-140) and Reaction Biology
# Protocol: as §1
# MPSK1 = biological target: T3, MPSK1 (Homo sapiens, UniProt O75716)
# T3 construct: lines 1-140) and Reaction Biology
# Protocol: as §1
# JNK3 = biological target: T4, JNK3 (Homo sapiens, UniProt P53779)
# T4 construct: lines 1-140) and Reaction Biology
# Protocol: as §1
# CAMK1 = biological target: T5, CAMK1 (Homo sapiens, UniProt Q14012)
# T5 construct: lines 1-140) and Reaction Biology
# Protocol: as §1
# SIK2 = biological target: T6, SIK2 (Homo sapiens, UniProt Q9H0K1)
# T6 construct: lines 1-140) and Reaction Biology
# Protocol: as §1
# MST3 = biological target: T7, MST3 (Homo sapiens, UniProt Q9Y6E0)
# T7 construct: lines 1-140) and Reaction Biology
# Protocol: as §1
# MEKK1 = biological target: T8, MEKK1 (Homo sapiens, UniProt Q13233)
# T8 construct: lines 1-140) and Reaction Biology
# Protocol: as §1
# RIPK2 = biological target: T9, RIPK2 (Homo sapiens, UniProt O43353)
# T9 construct: lines 1-140) and Reaction Biology
# Protocol: as §1
# S6K1 = biological target: T10, S6K1 (Homo sapiens, UniProt P23443)
# T10 construct: lines 1-140) and Reaction Biology
# Protocol: as §1
# CHK2 = biological target: T11, CHK2 (Homo sapiens, UniProt O96017)
# T11 construct: lines 1-140) and Reaction Biology
# Protocol: as §1
# ERK2 = biological target: T12, ERK2 (Homo sapiens, UniProt P28482)
# T12 construct: lines 1-140) and Reaction Biology
# Protocol: as §1
# MAPKAP-K2 = biological target: T13, MAPKAP-K2 (Homo sapiens, UniProt P49137)
# T13 construct: lines 1-140) and Reaction Biology
# Protocol: as §1
# MLK3 = biological target: T14, MLK3 (Homo sapiens, UniProt Q16584)
# T14 construct: lines 1-140) and Reaction Biology
# Protocol: as §1
# MKK1 = biological target: T15, MKK1 (Homo sapiens, UniProt Q02750)
# T15 construct: lines 1-140) and Reaction Biology
# Protocol: as §1
# p38d MAPK = biological target: T16, p38d MAPK (Homo sapiens, UniProt O15264)
# T16 construct: lines 1-140) and Reaction Biology
# T16 sequence (O15264 1-365): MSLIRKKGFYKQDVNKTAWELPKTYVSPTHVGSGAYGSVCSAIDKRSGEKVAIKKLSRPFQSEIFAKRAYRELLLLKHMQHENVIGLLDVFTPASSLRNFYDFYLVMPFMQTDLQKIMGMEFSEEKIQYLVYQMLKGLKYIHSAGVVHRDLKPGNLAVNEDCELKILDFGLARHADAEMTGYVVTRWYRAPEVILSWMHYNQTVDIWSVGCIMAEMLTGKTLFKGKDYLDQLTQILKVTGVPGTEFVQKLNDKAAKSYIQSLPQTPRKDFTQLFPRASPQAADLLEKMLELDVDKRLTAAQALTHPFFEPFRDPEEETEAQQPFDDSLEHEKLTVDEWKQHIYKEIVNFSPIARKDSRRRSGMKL
# Protocol: as §1
# LCK = biological target: T17, LCK (Homo sapiens, UniProt P06239)
# T17 construct: lines 1-140) and Reaction Biology
# Protocol: as §1
# PKCa = biological target: T18, PKCa (Homo sapiens, UniProt P17252)
# T18 construct: lines 1-140) and Reaction Biology
# Protocol: as §1
# PKCγ = biological target: T19, PKCγ (Homo sapiens, UniProt P05129)
# T19 construct: lines 1-140) and Reaction Biology
# Protocol: as §1
# EPH-A4 = biological target: T20, EPH-A4 (Homo sapiens, UniProt P54764)
# T20 construct: lines 1-140) and Reaction Biology
# Protocol: as §1
# YES1 = biological target: T21, YES1 (Homo sapiens, UniProt P07947)
# T21 construct: lines 1-140) and Reaction Biology
# Protocol: as §1
# PAK4 = biological target: T22, PAK4 (Homo sapiens, UniProt O96013)
# T22 construct: lines 1-140) and Reaction Biology
# Protocol: as §1
# DYRK2 = biological target: T23, DYRK2 (Homo sapiens, UniProt Q92630)
# T23 construct: lines 1-140) and Reaction Biology
# T23 sequence (Q92630 1-601): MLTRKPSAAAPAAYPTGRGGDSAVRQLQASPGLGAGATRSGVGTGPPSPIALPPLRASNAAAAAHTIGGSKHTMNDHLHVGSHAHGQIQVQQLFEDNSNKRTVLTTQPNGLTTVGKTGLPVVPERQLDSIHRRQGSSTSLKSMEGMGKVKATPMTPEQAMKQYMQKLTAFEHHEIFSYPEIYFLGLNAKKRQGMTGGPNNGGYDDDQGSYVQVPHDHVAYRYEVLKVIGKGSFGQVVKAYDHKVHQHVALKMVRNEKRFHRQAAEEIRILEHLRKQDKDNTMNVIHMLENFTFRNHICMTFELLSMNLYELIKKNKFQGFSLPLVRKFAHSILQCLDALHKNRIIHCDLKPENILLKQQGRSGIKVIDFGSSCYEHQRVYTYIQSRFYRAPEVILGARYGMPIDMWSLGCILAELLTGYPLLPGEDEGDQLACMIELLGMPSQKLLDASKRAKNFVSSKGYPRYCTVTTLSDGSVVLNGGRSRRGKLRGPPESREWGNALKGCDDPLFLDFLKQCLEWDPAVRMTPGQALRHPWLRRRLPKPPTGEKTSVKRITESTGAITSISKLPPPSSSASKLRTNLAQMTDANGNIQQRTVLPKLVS
# Protocol: as §1
# CDK2-Cyclin A = biological target: T24, CDK2-Cyclin A (Homo sapiens, UniProt P24941)
# T24 construct: lines 1-140) and Reaction Biology
# Protocol: as §1
# SGK1 = biological target: T25, SGK1 (Homo sapiens, UniProt O00141)
# T25 construct: lines 1-140) and Reaction Biology
# T25 sequence (O00141 1-431): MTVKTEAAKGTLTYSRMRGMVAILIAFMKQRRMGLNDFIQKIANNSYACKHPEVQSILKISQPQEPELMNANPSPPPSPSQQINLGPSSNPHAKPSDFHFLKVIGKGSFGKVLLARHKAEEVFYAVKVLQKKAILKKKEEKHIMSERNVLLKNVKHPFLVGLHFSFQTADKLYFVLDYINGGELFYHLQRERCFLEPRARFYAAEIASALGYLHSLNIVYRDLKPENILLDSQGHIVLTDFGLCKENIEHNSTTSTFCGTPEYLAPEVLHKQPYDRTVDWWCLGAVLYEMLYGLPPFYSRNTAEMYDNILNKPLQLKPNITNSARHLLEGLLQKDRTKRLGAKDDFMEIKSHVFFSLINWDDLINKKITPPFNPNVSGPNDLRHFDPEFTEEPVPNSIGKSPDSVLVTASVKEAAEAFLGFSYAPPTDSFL
# Protocol: as §1
# T1 sequence (P51617 whole entry): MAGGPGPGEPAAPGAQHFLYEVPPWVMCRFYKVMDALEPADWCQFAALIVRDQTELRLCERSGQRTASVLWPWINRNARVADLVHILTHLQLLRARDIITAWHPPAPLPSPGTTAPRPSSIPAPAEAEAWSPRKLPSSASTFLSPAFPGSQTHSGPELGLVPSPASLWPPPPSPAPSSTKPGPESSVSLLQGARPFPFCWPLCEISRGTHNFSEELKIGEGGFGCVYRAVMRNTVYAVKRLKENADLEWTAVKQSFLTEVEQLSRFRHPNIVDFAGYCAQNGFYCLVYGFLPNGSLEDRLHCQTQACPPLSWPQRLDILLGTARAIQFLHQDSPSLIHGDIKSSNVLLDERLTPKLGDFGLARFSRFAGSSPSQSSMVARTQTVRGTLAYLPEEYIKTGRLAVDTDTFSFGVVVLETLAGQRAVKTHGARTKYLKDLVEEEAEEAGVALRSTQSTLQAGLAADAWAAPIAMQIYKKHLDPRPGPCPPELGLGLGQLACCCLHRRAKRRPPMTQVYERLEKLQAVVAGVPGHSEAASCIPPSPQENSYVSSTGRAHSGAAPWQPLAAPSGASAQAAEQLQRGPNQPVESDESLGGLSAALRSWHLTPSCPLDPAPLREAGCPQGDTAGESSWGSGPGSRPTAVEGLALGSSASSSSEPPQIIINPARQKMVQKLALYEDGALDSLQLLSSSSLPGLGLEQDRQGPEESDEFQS
# T9 sequence (O43353 whole entry): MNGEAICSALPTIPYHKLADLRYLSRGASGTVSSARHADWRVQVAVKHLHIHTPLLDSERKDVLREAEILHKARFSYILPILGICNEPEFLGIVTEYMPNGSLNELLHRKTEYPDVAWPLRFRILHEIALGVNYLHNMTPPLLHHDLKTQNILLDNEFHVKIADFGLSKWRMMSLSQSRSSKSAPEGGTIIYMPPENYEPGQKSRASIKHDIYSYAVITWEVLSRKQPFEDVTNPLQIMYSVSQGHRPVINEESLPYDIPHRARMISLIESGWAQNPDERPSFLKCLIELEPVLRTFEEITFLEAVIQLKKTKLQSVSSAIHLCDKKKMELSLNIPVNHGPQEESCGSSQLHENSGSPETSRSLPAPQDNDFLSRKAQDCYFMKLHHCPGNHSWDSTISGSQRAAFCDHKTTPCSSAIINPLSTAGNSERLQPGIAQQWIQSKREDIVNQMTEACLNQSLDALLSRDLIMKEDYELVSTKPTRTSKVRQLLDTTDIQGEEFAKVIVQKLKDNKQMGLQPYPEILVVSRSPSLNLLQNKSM
# T15 sequence (Q02750 whole entry): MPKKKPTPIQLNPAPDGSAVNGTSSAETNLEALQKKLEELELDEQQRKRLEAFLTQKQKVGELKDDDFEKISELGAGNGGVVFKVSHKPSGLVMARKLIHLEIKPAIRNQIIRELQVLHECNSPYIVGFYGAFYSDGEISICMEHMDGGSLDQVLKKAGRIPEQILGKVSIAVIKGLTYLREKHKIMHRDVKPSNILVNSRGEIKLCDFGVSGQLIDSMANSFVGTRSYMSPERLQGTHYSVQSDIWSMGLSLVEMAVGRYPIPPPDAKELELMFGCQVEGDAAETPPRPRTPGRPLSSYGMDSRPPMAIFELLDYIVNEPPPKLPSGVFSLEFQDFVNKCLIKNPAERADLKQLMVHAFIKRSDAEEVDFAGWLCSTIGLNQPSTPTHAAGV
# T20 sequence (P54764 20-986): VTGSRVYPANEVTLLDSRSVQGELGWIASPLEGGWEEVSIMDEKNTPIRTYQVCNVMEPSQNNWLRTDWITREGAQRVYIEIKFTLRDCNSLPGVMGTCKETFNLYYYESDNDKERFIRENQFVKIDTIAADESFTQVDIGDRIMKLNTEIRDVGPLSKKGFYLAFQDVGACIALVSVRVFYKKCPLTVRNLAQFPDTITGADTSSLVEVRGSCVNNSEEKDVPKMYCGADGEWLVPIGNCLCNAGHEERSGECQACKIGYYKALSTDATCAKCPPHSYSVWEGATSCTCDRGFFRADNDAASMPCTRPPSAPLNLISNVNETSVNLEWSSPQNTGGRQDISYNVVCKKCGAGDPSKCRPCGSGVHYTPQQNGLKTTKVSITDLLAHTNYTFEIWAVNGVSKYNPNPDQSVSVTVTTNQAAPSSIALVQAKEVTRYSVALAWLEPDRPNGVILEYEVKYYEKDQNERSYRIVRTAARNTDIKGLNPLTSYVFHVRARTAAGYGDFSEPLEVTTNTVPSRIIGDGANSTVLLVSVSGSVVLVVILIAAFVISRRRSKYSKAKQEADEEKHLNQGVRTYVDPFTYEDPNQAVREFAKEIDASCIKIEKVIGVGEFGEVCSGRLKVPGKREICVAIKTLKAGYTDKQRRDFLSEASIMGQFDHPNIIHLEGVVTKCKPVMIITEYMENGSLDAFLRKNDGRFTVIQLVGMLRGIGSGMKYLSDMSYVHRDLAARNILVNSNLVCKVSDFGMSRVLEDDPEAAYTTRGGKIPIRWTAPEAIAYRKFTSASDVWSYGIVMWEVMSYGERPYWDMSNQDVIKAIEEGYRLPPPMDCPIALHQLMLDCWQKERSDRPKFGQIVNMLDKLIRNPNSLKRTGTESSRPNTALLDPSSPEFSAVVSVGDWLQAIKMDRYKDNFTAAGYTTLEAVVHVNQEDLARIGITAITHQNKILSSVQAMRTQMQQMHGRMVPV
# T10 sequence (P23443 whole entry): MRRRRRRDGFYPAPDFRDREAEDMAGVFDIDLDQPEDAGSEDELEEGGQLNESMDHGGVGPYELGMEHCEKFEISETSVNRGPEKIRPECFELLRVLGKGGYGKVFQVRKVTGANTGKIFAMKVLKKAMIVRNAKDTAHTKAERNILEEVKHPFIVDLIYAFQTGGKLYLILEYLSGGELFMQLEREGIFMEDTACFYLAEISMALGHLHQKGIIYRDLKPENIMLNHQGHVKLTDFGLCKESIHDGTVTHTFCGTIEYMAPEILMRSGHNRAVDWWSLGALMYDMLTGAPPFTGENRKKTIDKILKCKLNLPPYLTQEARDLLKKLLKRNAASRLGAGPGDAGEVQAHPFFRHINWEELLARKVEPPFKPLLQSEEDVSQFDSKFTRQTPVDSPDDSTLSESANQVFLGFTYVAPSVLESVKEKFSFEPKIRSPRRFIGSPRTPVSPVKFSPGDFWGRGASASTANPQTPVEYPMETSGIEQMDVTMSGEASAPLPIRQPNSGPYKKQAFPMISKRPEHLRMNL
# T11 sequence (O96017 whole entry): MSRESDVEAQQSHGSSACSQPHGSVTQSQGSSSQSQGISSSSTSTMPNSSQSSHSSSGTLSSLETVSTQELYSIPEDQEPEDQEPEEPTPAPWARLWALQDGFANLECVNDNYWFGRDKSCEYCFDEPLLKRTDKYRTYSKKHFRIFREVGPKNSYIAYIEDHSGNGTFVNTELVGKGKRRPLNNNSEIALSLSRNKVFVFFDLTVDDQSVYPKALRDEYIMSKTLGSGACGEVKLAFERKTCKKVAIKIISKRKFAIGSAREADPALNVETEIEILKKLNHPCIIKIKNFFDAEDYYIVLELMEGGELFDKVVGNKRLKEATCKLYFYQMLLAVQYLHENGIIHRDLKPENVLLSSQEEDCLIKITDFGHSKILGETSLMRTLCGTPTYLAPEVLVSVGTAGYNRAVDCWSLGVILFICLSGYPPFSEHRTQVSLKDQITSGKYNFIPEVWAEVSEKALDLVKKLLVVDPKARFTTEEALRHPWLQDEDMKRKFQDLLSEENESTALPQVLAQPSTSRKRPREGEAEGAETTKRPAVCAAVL
# T3 sequence (O75716 whole entry): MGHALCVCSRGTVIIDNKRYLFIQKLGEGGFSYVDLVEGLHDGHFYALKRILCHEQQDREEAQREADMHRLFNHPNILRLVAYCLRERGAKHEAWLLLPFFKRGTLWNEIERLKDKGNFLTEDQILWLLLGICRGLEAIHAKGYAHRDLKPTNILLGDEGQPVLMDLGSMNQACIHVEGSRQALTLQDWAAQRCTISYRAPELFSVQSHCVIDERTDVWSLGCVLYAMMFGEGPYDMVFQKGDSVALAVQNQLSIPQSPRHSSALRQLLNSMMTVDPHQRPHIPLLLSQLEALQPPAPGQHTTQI
# T21 sequence (P07947 whole entry): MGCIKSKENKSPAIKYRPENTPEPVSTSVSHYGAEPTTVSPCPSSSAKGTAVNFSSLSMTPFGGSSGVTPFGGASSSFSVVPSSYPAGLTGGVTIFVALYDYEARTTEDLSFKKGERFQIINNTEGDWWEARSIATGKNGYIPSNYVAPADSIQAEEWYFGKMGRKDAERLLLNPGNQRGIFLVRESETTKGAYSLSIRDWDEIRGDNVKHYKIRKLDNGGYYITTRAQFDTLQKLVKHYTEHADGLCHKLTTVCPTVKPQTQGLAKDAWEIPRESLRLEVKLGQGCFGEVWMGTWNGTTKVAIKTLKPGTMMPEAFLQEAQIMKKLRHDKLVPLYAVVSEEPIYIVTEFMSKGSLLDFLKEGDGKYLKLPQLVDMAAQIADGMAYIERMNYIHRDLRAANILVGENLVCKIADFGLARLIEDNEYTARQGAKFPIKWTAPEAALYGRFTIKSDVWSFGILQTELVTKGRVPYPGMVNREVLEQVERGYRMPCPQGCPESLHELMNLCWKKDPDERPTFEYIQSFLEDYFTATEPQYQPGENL
# T12 sequence (P28482 whole entry): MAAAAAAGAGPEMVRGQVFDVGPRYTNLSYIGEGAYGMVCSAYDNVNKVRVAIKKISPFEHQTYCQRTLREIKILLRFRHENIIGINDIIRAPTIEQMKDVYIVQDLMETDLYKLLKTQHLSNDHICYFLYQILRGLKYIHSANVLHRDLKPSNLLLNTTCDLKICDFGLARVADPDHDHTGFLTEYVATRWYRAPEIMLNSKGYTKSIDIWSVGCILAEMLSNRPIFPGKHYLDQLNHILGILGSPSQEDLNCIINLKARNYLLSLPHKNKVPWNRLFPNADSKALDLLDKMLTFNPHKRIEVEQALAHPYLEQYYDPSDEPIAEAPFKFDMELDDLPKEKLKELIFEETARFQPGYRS
smiles,measurement,setting,value
O=C1Nc2ccc(I)cc2/C1=C/c1cc(Br)c(O)c(Br)c1 [GW5074],remaining activity at 1 µM,IRAK1; read-out: residual activity,57%
same,remaining activity at 1 µM,DAPK1; read-out: residual activity,29%
same,remaining activity at 1 µM,MPSK1; read-out: residual activity,38%
same,remaining activity at 1 µM,JNK3; read-out: residual activity,65%
same,remaining activity at 1 µM,CAMK1; read-out: residual activity,70%
same,remaining activity at 1 µM,SIK2; read-out: residual activity,24%
same,remaining activity at 1 µM,MST3; read-out: residual activity,29%
same,remaining activity at 1 µM,MEKK1; read-out: residual activity,5%
same,remaining activity at 1 µM,RIPK2; read-out: residual activity,51%
same,remaining activity at 1 µM,S6K1; read-out: residual activity,87%
same,remaining activity at 1 µM,CHK2; read-out: residual activity,46%
same,remaining activity at 1 µM,ERK2; read-out: residual activity,106%
same,remaining activity at 1 µM,MAPKAP-K2; read-out: residual activity,81%
same,remaining activity at 1 µM,MLK3; read-out: residual activity,17%
same,remaining activity at 1 µM,MKK1; read-out: residual activity,80%
same,remaining activity at 1 µM,p38d MAPK; read-out: residual activity,82%
same,remaining activity at 1 µM,LCK; read-out: residual activity,58%
same,remaining activity at 1 µM,PKCa; read-out: residual activity,85%
same,remaining activity at 1 µM,PKCγ; read-out: residual activity,100%
same,remaining activity at 1 µM,EPH-A4; read-out: residual activity,91%
same,remaining activity at 1 µM,YES1; read-out: residual activity,93%
same,remaining activity at 1 µM,PAK4; read-out: residual activity,94%
same,remaining activity at 1 µM,DYRK2; read-out: residual activity,13%
same,remaining activity at 1 µM,CDK2-Cyclin A; read-out: residual activity,111%
same,remaining activity at 1 µM,SGK1; read-out: residual activity,91%
Nc1ncc(C(=O)NC2CN(C(=O)C3CC3)C2)c2ccc(-c3cccc(F)c3)nc12 [GNE-495],residual activity,IRAK1; 1 μM,113%
same,residual activity,DAPK1; 1 μM,126%
same,residual activity,MPSK1; 1 μM,100%
same,residual activity,JNK3; 1 μM,73%
same,residual activity,CAMK1; 1 μM,93%
same,residual activity,SIK2; 1 μM,102%
same,residual activity,MST3; 1 μM,72%
same,residual activity,MEKK1; 1 μM,87%
same,residual activity,RIPK2; 1 μM,11%
same,residual activity,S6K1; 1 μM,43%
same,residual activity,CHK2; 1 μM,102%
same,residual activity,ERK2; 1 μM,104%
same,residual activity,MAPKAP-K2; 1 μM,101%
same,residual activity,MLK3; 1 μM,38%
same,residual activity,MKK1; 1 μM,56%
same,residual activity,p38d MAPK; 1 μM,110%
same,residual activity,LCK; 1 μM,104%
same,residual activity,PKCa; 1 μM,50%
same,residual activity,PKCγ; 1 μM,74%
same,residual activity,EPH-A4; 1 μM,72%
same,residual activity,YES1; 1 μM,53%
same,residual activity,PAK4; 1 μM,28%
same,residual activity,DYRK2; 1 μM,55%
same,residual activity,CDK2-Cyclin A; 1 μM,55%
same,residual activity,SGK1; 1 μM,55%
